As usually defined, the IC50 is the concentration needed to halve the response being measured. The low end stands for inhibition by little substance, the high end for a need for much substance. What is called inhibition is the change of the read-out against control, counted positive when it falls.

The structures appear in SMILES notation.

The values below come from patent US20240182445A1 (ONO PHARMACEUTICAL CO., LTD., priority 2019, published 2024).

In one test the target is T1, human TREK-1 (Homo sapiens, UniProt O95069).
T1 construct: expressed in transfected cells
T1 sequence (O95069 1-426): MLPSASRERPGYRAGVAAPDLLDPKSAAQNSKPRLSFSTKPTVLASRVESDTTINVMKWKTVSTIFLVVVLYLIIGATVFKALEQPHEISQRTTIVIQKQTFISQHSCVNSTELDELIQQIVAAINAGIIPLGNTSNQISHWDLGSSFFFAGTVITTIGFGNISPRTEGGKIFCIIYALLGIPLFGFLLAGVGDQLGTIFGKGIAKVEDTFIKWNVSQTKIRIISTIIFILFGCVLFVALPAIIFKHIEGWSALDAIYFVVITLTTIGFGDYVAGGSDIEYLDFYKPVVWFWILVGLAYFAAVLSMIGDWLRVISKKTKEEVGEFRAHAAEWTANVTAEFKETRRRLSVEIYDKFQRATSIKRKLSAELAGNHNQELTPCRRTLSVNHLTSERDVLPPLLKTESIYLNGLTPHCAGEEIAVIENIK
Kind of test: TREK-1 Thallium (Tl+) flux assay, Method 1. Type of test: cell-based. The note with it: TREK-1 Thallium (Tl+) flux assay, Method 1. In a few lines:
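Readout: Thallos fluorescence ratio, taken 25 s post-thallium relative to the pre-thallium baseline average, then converted to % inhibition. Cells were CHO-K1 stably expressing human TREK-1, dye-loaded and exposed to test compound (vehicle 0.3% DMSO) for 10 min prior to thallium stimulation.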
Consider `Cc1cc(OCc2ccccc2)ccc1NC(=O)c1c(Cl)cnn1C1CCN(C(=O)C2CCC2)CC1` [Compound 402, N-(4-(benzyloxy)-2-methylphenyl)-4-chloro-1-(1-(cyclobutanecarbonyl)piperidin-4-yl)-1H-pyrazole-5-carboxamide], for which the concentration for half-maximal inhibition (IC50) was 2160 nM.
On the same count and under the same terms, under `Cc1cc(OCc2ccccc2)ccc1NC(=O)c1c(Cl)cnn1C1CC2(C1)CN(C(=O)C(C)C)C2` [Compound 398, N-(4-(benzyloxy)-2-methylphenyl)-4-chloro-1-(2-isobutyryl-2-azaspiro[3.3]heptan-6-yl)-1H-pyrazole-5-carboxamide] stands 1740 nM; under `COc1ncc(-c2cnc(NC(=O)c3c(Cl)cnn3C3CCN(C(C)=O)CC3)c(C)c2)cc1Cl` [Compound 425, 1-(1-acetylpiperidin-4-yl)-4-chloro-N-(5′-chloro-6′-methoxy-5-methyl-[3,3′-bipyridin]-6-yl)-1H-pyrazole-5-carboxamide], 5050 nM.

Staying with this test, now noted: TREK-1 Thallium (Tl+) flux assay; no *^12 (Method 2) mark on these rows.
For `CC(=O)N1C[C@H]2C[C@H](n3ncc(Cl)c3C(=O)Nc3ncc(C#Cc4ccccc4)cc3C)C[C@H]2C1` [Compound 260, 1-[(3aR,5s,6aS)-2-acetyloctahydrocyclopenta[c]pyrrol-5-yl]-4-chloro-N-[3-methyl-5-(phenylethynyl)pyridin-2-yl]-1H-pyrazole-5-carboxamide], the half-inhibitory concentration (IC50) was found to be 260 nM.
Still for that read-out and setting: under `CC(=O)N1CCN(CCn2ncc(Cl)c2C(=O)Nc2ncc(C#Cc3ccccc3)cc2C)CC1` [Compound 303, 1-(2-(4-acetylpiperazin-1-yl)ethyl)-4-chloro-N-(3-methyl-5-(phenylethynyl)pyridin-2-yl)-1H-pyrazole-5-carboxamide] stands 560 nM.
The molecule `Cc1cc(C#Cc2ccccc2)cnc1NC(=O)c1c(Cl)cnn1C1CCCOC1` (stereo not drawn) [Compound 327, 4-chloro-N-(3-methyl-5-(phenylethynyl)pyridin-2-yl)-1-(tetrahydro-2H-pyran-3-yl)-1H-pyrazole-5-carboxamide] displayed an IC50 of 650 nM.
Same read-out and setting: under `Cc1cc(C#Cc2ccccc2)cnc1NC(=O)c1c(Cl)cnn1[C@H]1C[C@@H]2CN(C(=O)OC(C)(C)C)C[C@@H]2C1` [Compound 329, tert-butyl (3aR,5s,6aS)-5-(4-chloro-5-{[3-methyl-5-(phenylethynyl)pyridin-2-yl]carbamoyl}-1H-pyrazol-1-yl)hexahydrocyclopenta[c]pyrrole-2(1H)-carboxylate] stands 650 nM; under `O=C(Nc1c(F)cc(C#Cc2ccccc2)cc1F)c1c(Cl)cnn1C1CCOCC1` [Compound 201, 4-chloro-N-(2,6-difluoro-4-(phenylethynyl)phenyl)-1-(tetrahydro-2H-pyran-4-yl)-1H-pyrazole-5-carboxamide], 310 nM.
The same measure, in the same setting: the same measure for `O=C(Nc1ncc(C#Cc2cccs2)cc1F)c1c(Cl)cnn1CCC1CCN(C(=O)C2CC2)CC1` [Compound 250, 4-chloro-1-(2-(1-(cyclopropanecarbonyl)piperidin-4-yl)ethyl)-N-(3-fluoro-5-(thiophen-2-ylethynyl)pyridin-2-yl)-1H-pyrazole-5-carboxamide]: 400 nM.
The same measure, in the same setting: under `O=C(Nc1ncc(C#Cc2ccccc2)cc1Cl)c1c(Cl)cnn1[C@@H]1CCOC1` [Compound 376, (R)-4-chloro-N-(3-chloro-5-(phenylethynyl)pyridin-2-yl)-1-(tetrahydrofuran-3-yl)-1H-pyrazole-5-carboxamide] stands 1540 nM.
Regarding `Cc1cc(C#Cc2ccccc2)cnc1NC(=O)c1c(Cl)cnn1[C@@H]1CC[C@@H](NC(=O)OC(C)(C)C)C1` [Compound 291, tert-butyl ((1R,3R)-3-(4-chloro-5-((3-methyl-5-(phenylethynyl)pyridin-2-yl)carbamoyl)-1H-pyrazol-1-yl)cyclopentyl)carbamate], the IC50 was found to be 520 nM.
Same read-out and setting: the same measure for `COc1c(F)cc(-c2cnc(NC(=O)c3c(Cl)cnn3C3CCN(C(=O)OC(C)(C)C)CC3)c(C)c2)cc1F` [Compound 386, tert-butyl 4-(4-chloro-5-((5-(3,5-difluoro-4-methoxyphenyl)-3-methylpyridin-2-yl)carbamoyl)-1H-pyrazol-1-yl)piperidine-1-carboxylate]: 890 nM; for `Cc1cc(C#Cc2ccccc2)cnc1NC(=O)c1c(Cl)cnn1C1CCN(C(=O)OC(C)(C)C)C1` (stereo not drawn) [Compound 307, tert-butyl 3-(4-chloro-5-((3-methyl-5-(phenylethynyl)pyridin-2-yl)carbamoyl)-1H-pyrazol-1-yl)pyrrolidine-1-carboxylate]: 580 nM; for `CC(C)(C)OC(=O)N[C@H]1CC[C@@H](n2ncc(Cl)c2C(=O)Nc2ncc(C#Cc3ccccc3)cc2F)CC1` [Compound 294, tert-butyl (cis-4-(4-chloro-5-((3-fluoro-5-(phenylethynyl)pyridin-2-yl)carbamoyl)-1H-pyrazol-1-yl)cyclohexyl)carbamate]: 530 nM.
For the molecule `Cc1cc(C#Cc2ccccc2)cnc1NC(=O)c1c(Cl)cnn1[C@H]1CC[C@@H](NC(=O)OC(C)(C)C)CC1` [Compound 309, Tert-butyl (cis-4-(4-chloro-5-((3-methyl-5-(phenylethynyl)pyridin-2-yl)carbamoyl)-1H-pyrazol-1-yl)cyclohexyl)carbamate], inhibition was half-maximal at 580 nM (IC50).

Staying with this test, now noted: TREK-1 Thallium (Tl+) flux assay; values without footnote *12 are Method 1.
Regarding `Cc1cc(C#Cc2ccccc2)cnc1NC(=O)c1c(Cl)cnn1C1CCN(C(=O)C2CC2)C1` (stereo not drawn) [Compound 79, 4-chloro-1-(1-(cyclopropanecarbonyl)pyrrolidin-3-yl)-N-(3-methyl-5-(phenylethynyl)pyridin-2-yl)-1H-pyrazole-5-carboxamide], the concentration for half-maximal inhibition (IC50) stood at 160 nM.
On the same count and under the same terms, the same measure for `Cc1cc(C#Cc2ccccc2)cc(F)c1NC(=O)c1c(Cl)cnn1[C@H]1CCOC1` [Compound 157, (S)-4-chloro-N-(2-fluoro-6-methyl-4-(phenylethynyl)phenyl)-1-(tetrahydrofuran-3-yl)-1H-pyrazole-5-carboxamide]: 250 nM; for `Cc1cc(C#Cc2cccc(F)c2)cnc1NC(=O)c1c(Cl)cnn1C1CCN(C(=O)C(C)C)CC1` [Compound 152, 4-chloro-N-(5-((3-fluorophenyl)ethynyl)-3-methylpyridin-2-yl)-1-(1-isobutyrylpiperidin-4-yl)-1H-pyrazole-5-carboxamide]: 240 nM; for `CC(C)C(=O)N1CCC(n2ncc(Cl)c2C(=O)Nc2ncc(C#Cc3cccs3)cc2F)CC1` [Compound 175, 4-chloro-N-(3-fluoro-5-(thiophen-2-ylethynyl)pyridin-2-yl)-1-(1-isobutyrylpiperidin-4-yl)-1H-pyrazole-5-carboxamide]: 270 nM.
The same measure, in the same setting: the same measure for `CCNC(=O)N1CCC(n2ncc(Cl)c2C(=O)Nc2ncc(C#Cc3cccs3)cc2C)CC1` [Compound 73, 4-(4-chloro-5-((3-methyl-5-(thiophen-2-ylethynyl)pyridin-2-yl)carbamoyl)-1H-pyrazol-1-yl)-N-ethylpiperidine-1-carboxamide]: 160 nM; for `Cc1cc(C#Cc2ccccc2)cnc1NC(=O)c1c(Cl)cnn1C1CN(C(=O)C2CC2)C1` [Compound 87, 4-chloro-1-(1-(cyclopropanecarbonyl)azetidin-3-yl)-N-(3-methyl-5-(phenylethynyl)pyridin-2-yl)-1H-pyrazole-5-carboxamide]: 170 nM; for `CC(=O)N1CCC(C)(Cn2ncc(Cl)c2C(=O)Nc2ncc(C#Cc3ccccc3)cc2C)CC1` [Compound 166, 1-((1-acetyl-4-methylpiperidin-4-yl)methyl)-4-chloro-N-(3-methyl-5-(phenylethynyl)pyridin-2-yl)-1H-pyrazole-5-carboxamide]: 260 nM.
Still for that read-out and setting: the same measure for `CC(=O)N1CCC(C(C)n2ncc(Cl)c2C(=O)Nc2ncc(C#Cc3ccccc3)cc2F)CC1` (stereo not drawn) [Compound 35, 1-(1-(1-acetylpiperidin-4-yl)ethyl)-4-chloro-N-(3-fluoro-5-(phenylethynyl)pyridin-2-yl)-1H-pyrazole-5-carboxamide]: 110 nM.
The molecule `Cc1cc(C#Cc2ccc(F)cc2)cnc1NC(=O)c1c(Cl)cnn1[C@H]1CC[C@@H](NC(=O)C2CC2)CC1` [Compound 165, 4-chloro-1-(cis-4-(cyclopropanecarboxamido)cyclohexyl)-N-(5-((4-fluorophenyl)ethynyl)-3-methylpyridin-2-yl)-1H-pyrazole-5-carboxamide] had a half-maximal inhibitory concentration (IC50) of 260 nM.
On the same count and under the same terms, under `Cc1cc(C#Cc2ccccc2)cnc1NC(=O)c1c(Cl)cnn1-c1ccc2c(c1)OCCO2` [Compound 21, 4-chloro-1-(2,3-dihydrobenzo[b][1,4]dioxin-6-yl)-N-(3-methyl-5-(phenylethynyl)pyridin-2-yl)-1H-pyrazole-5-carboxamide] stands 70 nM; under `Cc1cc(C#Cc2cccs2)cnc1NC(=O)c1c(Cl)cnn1CC1CCN(C(=O)C(C)C)CC1` [Compound 76, 4-chloro-1-((1-isobutyrylpiperidin-4-yl)methyl)-N-(3-methyl-5-(thiophen-2-ylethynyl)pyridin-2-yl)-1H-pyrazole-5-carboxamide], 160 nM.

The same test, now with this note: read-out: Tl^+ Assay % inhibition at 30 uM (Minus value indicates activation of TREK-1); at 30 uM; CHO-K1 cells stably expressing human TREK-1; minus = activation.
As for `CC(=O)N1CCC(CCn2cc(Cl)c(C(=O)Nc3ncc(C#Cc4ccc(F)cc4)cc3C)n2)CC1` [Compound 442, 1-(2-(1-acetylpiperidin-4-yl)ethyl)-4-chloro-N-(5-((4-fluorophenyl)ethynyl)-3-methylpyridin-2-yl)-1H-pyrazole-3-carboxamide], the inhibition at 30 µM was -118%.
